Data set [1] concerns Hedgehog signaling pathway. The experiment in a line: Gli luciferase reporter assay in Gli Reporter-NIH3T3 cells (mShh stimulated). The conditions noted are these: mShh 1 μg/ml, 27 hours, read-out: IC50 for inhibition of the Hedgehog signaling pathway. The data set is classed as cell-based. Here is the method:
Hedgehog signaling pathway Gli Reporter-NIH3T3 cells were cultured in DMEM medium with 10% Calf serum, 1% Penn-strep, 500 μg/ml of Geneticin.
To perform the Gli luciferase reporter assay, Gli Reporter—NIH3T3 cells were seeded at 25,000 cells per well into white clear-bottom 96-well microplate in 100 μl of growth medium. Cells were incubated at 37° C. and 5% CO2 for overnight. Next day remove the medium from wells and add 45 μl of diluted inhibitor in assay medium (Opti-MEM Reduced Serum Medium+0.5% calf serum+1% non-essential amino acids+1 mM Na-pyruvate+10 mM HEPES+1% Pen/Strep) per well. Incubate cells at 37° C. in a CO2 incubator for 2 hours. Then add 5 μl of diluted mShh in assay medium to wells (final [mShh]=1 μg/ml). Add […] of assay medium to cell-free control wells. Cells were treated for 27 hours. […] Luminescence was measured using a luminometer (BioTek Synergy™ 2 microplate reader)
Reporter assays in triplicate were performed at each concentration. The luminescence intensity data were analyzed using the computer software, Graphpad Prism. In the absence of the compound, the luminescence intensity (Lt) in each data set was defined as 100%. In the absence of cells, the luminescence intensity (Lb) in each data set was defined as 0%. […]
On the technique in general: In a reporter assay the amount or activity of a reporter protein is the signal.

Another data set relates to A431 xenograft. The data set is classed as in vivo, BALB/c nude mice. Here is the method:
(§1) NCI-H2122 cells were cultured in RMPI1640 medium, A431 tumor cells cultured in DMEM medium, all the medium were supplemented with 10% heat inactivated fetal bovine serum, all cells used EDTA containing trypsin, passaged twice a week, incubated at 37° C. in an atmosphere of 5% CO2 in air and cultured.
(§2) 110 BALB/c nude mice, female, 6-8 weeks old, 18-22 g in body weight, were purchased from Shanghai Laboratory Animal Center (SLAC, Shanghai, China). The mice were kept in individually ventilated cage (IVC) systems at constant temperature and humidity, with 20.5-24.5° C. for temperature, 40-75% for humidity. With 4 animals in each cage, the size ogf the cage is 325 mm×210 mm×180 mm. The bedding material is corn cob, which is changed twice per week. Animals had free access to irradiation sterilized dry granule food and water during the entire study period. The food and water were changed twice per week. The identification labels for each cage contain the following information: number of animals, sex, strain, and date received treatment, study number, group number, and the starting date of the treatment. Animals were marked by ear coding. The experiments started one week after receiving the animals.
(§3) Each mouse were inoculated subcutaneously at the right flank region with NCI-H2122 tumor cells (5×10^7/ml), NCI-H1703 tumor cells (1×10^8/ml) and A431 tumor cells (5×10^7/ml), respectively in a mixture of phosphate-buffered saline and matrigel for tumor development via a 1 ml syringe. The treatments were started when the mean tumor size reached about 200 (150-250) mm^3.
(§4) To avoid errors between groups, the animals were first grouped by the tumor volumes according to the tumor volume measurements, and then randomly re-assigned to different groups.
(§5) During the study, the care and use of animals were conducted in accordance with the regulations of the Association for Assessment and Accreditation of Laboratory Animal Care (AAALAC). After tumor cell inoculation, the animals were checked daily for morbidity and mortality. At the time of routine monitoring, the animals were checked for any effects of tumor growth and treatments on normal behavior such as mobility, visual estimation of food and water consumption, body weight gain/loss, eye/hair matting and any other abnormal effect.
(§6) After tumor volume reached 3000 mm^3 or average tumor volume reached 2000 mm^3, before experimental animals emaciated or coma, anesthesia and euthanasia will be performed. During the experiment, if the weight loss of experimental animal reaches 20%, administration will be discontinued and experimental animals will be observed until the weight returned to 10% range before restart of the administration. In this experiment, when the mean tumor volume reached 2000 mm^3 or at the end of 59 days after the administration, experimental animals will be anesthesiaed to collect tumor mass which will be weighed and photographed.
(§7) • 8.1 Tumor size was measured twice weekly in two dimensions using a caliper, and the volume was expressed in mm^3 using the formula: V=0.5 a×b^2 where a and b are the long and short diameters of the tumor, respectively. • 8.2 T/C, percent value, T and C were the mean volume of the treated and control groups, respectively, on a given day. • 8.3 T−C, calculated with T as the time (in days) required for the mean tumor size of the treatment group to reach a predetermined size, and C was the time (in days) for the mean tumor size of the control group to reach the same size. • 8.4 (1−((Td−T0)/(Cd−C0)))×100% value (in percent) was an indication of antitumor effectiveness, Td and Cd were the mean tumor volumes of the treated and vehicle control animals on a given day and T0 and C0 were the mean tumor volumes of the treated and vehicle control animals at the start of the experiment. • 8.5 Tumor mass weight was measured at the end of study. 9. Statistical Analysis
(§8) A one-way analysis of variance was performed followed by multiple comparison procedures. […]

Data set [2] has as its system NCI-H2122 lung cancer xenograft. The data set is classed as in vivo, BALB/c nude mice. The protocol: as §1, §2, §3, §4, §5, §6, §7, §8
The subject of data set [3] is BXPC-3 human pancreatic carcinoma xenograft. As to the kind of experiment: BXPC-3 xenograft tumor model, subcutaneous. The data set is classed as in vivo, BALB/c nude mice. Here is the method: as §7
A one-way analysis of variance was performed followed by multiple comparison procedures. All data was analyzed using SPSS 18.0. *p<0.05 or **P<0.01 are generally considered statistically significant when compared with vehicle group.
BXPC-3 tumor cells cultured in RMPI1640 medium supplemented with 10% heat inactivated fetal bovine serum, all cells used EDTA containing trypsin, passaged twice a week, incubated at 37° C. in an atmosphere of 5% CO2 in air and cultured.
BALB/c nude mice, female, 6-8 weeks old, 18-22 g in body weight, were purchased from Shanghai Laboratory Animal Center (SLAC, Shanghai, China).
Each mouse was inoculated subcutaneously at the right flank region with BXPC-3 tumor cells (5×10^7) in 0.1 ml of phosphate-buffered saline with matrigel via a 1 ml syringe for tumor development. The treatments were started when the mean tumor size reaches approximately 200 (150-250) mm^3 at 9 days after inoculation.
Randomized grouping, observations, aseptic, data processing, measurement and statistical analysis are as described in Example 3.

A short description of data set [4]: Pharmacokinetic study of jervine in mice. The data set is classed as in vivo. The conditions noted are these: CD-1 mice, PO 10 mg/Kg. The protocol: Orally dosed: A total of 3 male experimental CD-1 mice, approximately 8 weeks of age at receipt was administered jervine via oral gavage at 10 mg/kg. Blood samples (300 μL) were collected via cardiac puncture predose and at 2 minute, 5 minute, 15 minute, 0.5 hour, 1 hour, 2 hour, 4 hour, 8 hour, 24 hours postdose. Plasma was made form the blood samples in order to measure the concentration of jervine.

Another data set in a line: MTD study of jervine. The data set is classed as in vivo, BALB/c nude mice. The conditions noted are these: 14 days. The protocol: 9 BALB/c nude mice were divided equally into 3 groups. The mice were orally dosed at 50 mg/kg, 80 mg/kg and 150 mg/kg by groups. […] It was initially determined that the MTD is higher than 80 mg/kg for BALB/c nude mice.

“Also recorded” adds a separate entry of the source. Like-named read-outs stand apart in the source and are kept apart here.

In the case of `CC1=C2C(=O)[C@H]3[C@@H](CC=C4C[C@@H](O)CC[C@@]43C)[C@@H]2CC[C@]12O[C@@H]1C[C@H](C)CN[C@H]1[C@H]2C` [jervine], the IC50 in data set [1] worked out at 0.05 µM. The T/C value is listed as 0.52 in the data set on A431 xenograft (A431, 40 mg/kg p.o. QD × 21 days); 0.80 in the data set with A431 xenograft (A431, 60 mg/kg p.o. QD × 21 days); 0.82 in the data set on A431 xenograft (A431, 80 mg/kg p.o. QD × 21 days); 0.79 in data set [2] (NCI-H2122, 40 mg/kg p.o. QD × 21 days); 0.701 in data set [2] (NCI-H2122, 60 mg/kg p.o. QD × 21 days); 0.594 in data set [2] (NCI-H2122, 80 mg/kg p.o. QD × 21 days). For the same compound, the T/C value in data set [3] (BXPC-3, 20 mg/kg iv QD × 21 days) came out at 25.8%; in data set [3] (BXPC-3, 40 mg/kg iv QD × 21 days), 59.1%; in data set [3] (BXPC-3, 80 mg/kg iv QD × 21 days) it was 54.2%. In data set [3] (BXPC-3 xenograft), the “tumor growth inhibition (in words)” value is listed as “significantly inhibit the growth of these three tumors; also recorded: effectively inhibit the tumor growth”. Also, in data set [3] (BXPC-3 xenograft, during administration), the “side effects / weight loss of the mice” value is recorded as “no obvious side effects such as weight lose was observed; also recorded: no significant of weight lose”. Also, the “F (bioavailability)” value in data set [4] worked out at 41.2%. The mortality result in the data set “MTD study of jervine” (50 mg/kg oral) is reported as “no animal dead”; in “MTD study of jervine” (80 mg/kg oral), “no animal die”; in “MTD study of jervine” (80 mg/kg oral, listed as Jervine), “no animal dead”; in “MTD study of jervine” (150 mg/kg oral), “Two mice in the 150 mg/kg treatment group were dead”. Further, the “general condition of the mice” value in the data set “MTD study of jervine” (80 mg/kg oral gavage) was “all mice were in good condition”. In the data set “MTD study of jervine” (80 mg/kg oral gavage), the weight loss entry was “no significant weight loss”.

Usually IC50 stands for the point on the concentration scale where inhibition reaches its midpoint.
